Earlier results, collected in US20220288158A1, “NOVEL ENTERIC COMBINATION THERAPY” (priority 2009, published 2022).

Test system: patients with constipation
Conditions: for effect on bowel activity when used in constipation: literature, Brandt L J et al 2009

Compound | effect on bowel activity when used in constipation | use of vancomycin alone in constipation (not all patients respond, and respond but partially)
neomycin | variable and not reproducible | 
CC[C@H]1OC(=O)[C@H](C)[C@@H](O[C@H]2C[C@@](C)(OC)[C@@H](O)[C@H](C)O2)[C@H](C)[C@@H](O[C@@H]2O[C@H](C)C[C@H](N(C)C)[C@H]2O)[C@](C)(OC)C[C@@H](C)C(=O)[C@H](C)[C@@H](O)[C@]1(C)O [clarithromycin] | variable and not reproducible | 
CO[C@H]1/C=C/O[C@@]2(C)Oc3c(C)c(O)c4c(O)c(c5c(nc6cc(C)ccn65)c4c3C2=O)NC(=O)/C(C)=C\C=C\[C@H](C)[C@H](O)[C@@H](C)[C@@H](O)[C@@H](C)[C@H](OC(C)=O)[C@@H]1C [rifaximin] | variable and not reproducible | 
CN[C@H](CC(C)C)C(=O)N[C@H]1C(=O)N[C@@H](CC(N)=O)C(=O)N[C@H]2C(=O)N[C@H]3C(=O)N[C@H](C(=O)N[C@H](C(=O)O)c4cc(O)cc(O)c4-c4cc3ccc4O)[C@H](O)c3ccc(c(Cl)c3)Oc3cc2cc(c3O[C@@H]2O[C@H](CO)[C@@H](O)[C@H](O)[C@H]2O[C@H]2C[C@](C)(N)[C@H](O)[C@H](C)O2)Oc2ccc(cc2Cl)[C@H]1O [vancomycin] |  | inefficient
Cc1ncc([N+](=O)[O-])n1CCO [metronidazole] | variable and not reproducible | 
